# Measurements reported in publication PMC11124870, “Effect of Antioxidants in Medicinal Products on Intestinal Drug Transporters” (Pharmaceutics, 2024).
# Where “and” joins values, the source holds several entries; their conditions need not be identical. Equal values may be shown once.
# Key:
# BCRP = target: T1, BCRP (Homo sapiens, UniProt Q9UNQ0); test: Vesicular transport assay, 3H-CCK8 uptake in BCRP membrane vesicles; assay type: biochemical; parameters: purchased ThermoFisher Scientific GM0008; host or cells: Sf9 membrane vesicles; settings: for % Uptake of 3H-CCK8 BCRP: antioxidant 200 µM, uptake with DMSO set as 100%, mean ± SD, three replicates, membrane vesicles; for inhibition at 20 min, 200 µM: human, Sf9 membrane vesicles overexpressing human BCRP, pH 7, probe 3H-CCK8, 3H-CCK8
# T1 sequence (Q9UNQ0 1-655): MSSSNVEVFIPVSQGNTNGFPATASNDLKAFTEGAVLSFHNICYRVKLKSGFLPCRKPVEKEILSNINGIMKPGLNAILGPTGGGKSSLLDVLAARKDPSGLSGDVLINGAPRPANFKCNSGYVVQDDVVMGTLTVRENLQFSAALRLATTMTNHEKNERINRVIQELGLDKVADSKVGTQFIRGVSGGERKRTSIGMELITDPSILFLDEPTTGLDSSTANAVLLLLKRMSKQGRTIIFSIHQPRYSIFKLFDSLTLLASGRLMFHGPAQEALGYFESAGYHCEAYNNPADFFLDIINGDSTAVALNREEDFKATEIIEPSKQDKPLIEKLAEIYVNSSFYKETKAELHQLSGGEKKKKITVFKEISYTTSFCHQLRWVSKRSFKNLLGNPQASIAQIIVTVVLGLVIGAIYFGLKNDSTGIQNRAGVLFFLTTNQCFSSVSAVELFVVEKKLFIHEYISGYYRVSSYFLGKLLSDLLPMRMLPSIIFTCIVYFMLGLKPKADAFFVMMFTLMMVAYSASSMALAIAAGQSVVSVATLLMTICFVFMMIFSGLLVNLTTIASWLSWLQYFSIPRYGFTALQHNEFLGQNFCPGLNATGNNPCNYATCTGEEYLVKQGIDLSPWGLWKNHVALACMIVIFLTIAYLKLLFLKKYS
# Description: (§1) The vesicular transport assay was performed using Spodoptera frugiperda 9 (Sf9) membrane vesicles overexpressing human P-gp or BCRP, as reported previously with minor modifications. In brief, Isoplate 96-well flat-bottom white plates were preincubated with HBSS containing 0.5 mg/mL BSA on an orbital shaker in a 37 °C incubator at 90 rpm for 60 min followed by washing with HBSS. The assay mixture (75 µL/well) contained a probe substrate and either vehicle control, a known inhibitor of P-gp or BCRP, or an antioxidant, in vesicle uptake buffer (50 mM MOPS-Tris, pH 7.0 + 70 mM KCl + 7.5 mM MgCl2) prewarmed to 37 °C. After addition of the assay mixture, 5 μL/well (5 μg/μL stock concentration of the vesicles) of vesicles overexpressing human P-gp or BCRP was added. Uptake assays were initiated by adding 20 μL of either 25 mM adenosine triphosphate (ATP) or 25 mM adenosine monophosphate (AMP) to a final concentration of 5 mM. Plates were incubated at 37 °C for 20 min with orbital shaking (90 rpm). After 20 min, the uptake was quenched by adding 150 μL of ice-cold wash buffer (40 mM MOPS-Tris, pH 7.0 + 70 mM KCl) to each well, and the mixture was transferred to a 96-well filtration plate. Vacuum was applied, and the vesicles were washed three times with wash buffer. Vesicles were then lysed with 100 µL of MicroScint-20.
# OATP2B1 [1] = target: T2, OATP2B1 (Homo sapiens, UniProt O94956); test: Uptake transporter assay, 3H-estrone sulfate uptake in HEK-293-OATP2B1 cells; settings: for % Uptake of 3H-ES OATP2B1: antioxidant 200 µM, uptake with DMSO set as 100%, mean ± SD, three replicates, HEK-293-OATP2B1 cells
# T2 sequence (O94956 1-709): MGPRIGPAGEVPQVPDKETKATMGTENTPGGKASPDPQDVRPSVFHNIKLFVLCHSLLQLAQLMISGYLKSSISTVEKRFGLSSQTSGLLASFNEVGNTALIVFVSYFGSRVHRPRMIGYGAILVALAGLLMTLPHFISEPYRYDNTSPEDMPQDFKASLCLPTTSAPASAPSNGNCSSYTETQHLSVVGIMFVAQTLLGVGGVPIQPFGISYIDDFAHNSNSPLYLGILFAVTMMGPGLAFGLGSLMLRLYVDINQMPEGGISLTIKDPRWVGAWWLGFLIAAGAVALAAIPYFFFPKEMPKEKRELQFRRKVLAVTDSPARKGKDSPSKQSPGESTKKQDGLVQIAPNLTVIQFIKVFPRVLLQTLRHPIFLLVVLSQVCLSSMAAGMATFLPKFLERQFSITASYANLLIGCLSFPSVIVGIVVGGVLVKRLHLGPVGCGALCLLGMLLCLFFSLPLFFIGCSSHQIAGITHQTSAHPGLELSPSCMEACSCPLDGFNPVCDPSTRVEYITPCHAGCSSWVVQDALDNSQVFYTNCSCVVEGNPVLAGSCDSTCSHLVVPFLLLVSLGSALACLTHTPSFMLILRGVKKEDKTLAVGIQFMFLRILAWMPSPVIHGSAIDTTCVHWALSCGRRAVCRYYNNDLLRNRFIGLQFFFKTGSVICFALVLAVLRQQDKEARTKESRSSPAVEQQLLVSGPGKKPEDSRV
# Description: (§2) The uptake transporter assay was performed as reported previously with minor modifications [15]. A day before the uptake assay, Isoplate 96-well plates were coated with poly-D-lysine in PBS with calcium and magnesium and washed with PBS. […] An assay mixture of ^3H-estrone sulfate, a known inhibitor of OATP2B1, or an antioxidant was prepared and incubated in a 37 °C incubator for 10 min. The cells were washed with ice-cold HBSS three times and incubated with MicroScint fluid on a shaker for 1 h for cell lysis. Radioactivity was measured by liquid scintillation counting with a MicroBeta^2® microplate counter. […] On the day of experiment, cells were washed twice with 0.4 mL of HBSS per well and then pre-incubated for 10–20 min in 0.4 mL of HBSS. […] Uptake of ^3H-valsartan was stopped after 15 min by washing three times with ice-cold HBSS. Cells were lysed in 750 µL of lysis buffer (0.1 N NaOH and 0.1% SDS in double-distilled water) per well while shaking for 60 min. A total of 690 µL of the lysate from each well was then added to 2.5 mL of EcoLite scintillation fluid. The radioactivity was determined on a LS6500 Scintillation Counter (Beckman Coulter). Protein concentration was measured with a Pierce™ BCA protein assay kit. The radioactivity in each well was corrected for protein concentration. All values were determined in triplicate, and the final values are expressed as % uptake relative to negative control (1% DMSO).
# (§3) Antioxidants were screened at a concentration of 200 μM.
# OATP2B1 [2] = target: T2, OATP2B1; test: 3H-valsartan uptake inhibition in HEK-293-OATP2B1 cells; settings: IC50 OATP2B1, valsartan uptake, substrate 3H-valsartan, three independent experiments
# Description: as §2, §3
# [3] = Table S1; source not stated; cited from earlier work
# P-gp [4] = target: T3, P-gp (Homo sapiens, UniProt P08183); test: Vesicular transport assay, 3H-NMQ uptake in P-gp membrane vesicles; assay type: biochemical; settings: for % Uptake of 3H-NMQ P-gp: antioxidant 200 µM, uptake with DMSO set as 100%, mean ± SD, three replicates, membrane vesicles; for inhibition at 20 min, 200 µM: human, Sf9 membrane vesicles overexpressing human P-gp, pH 7, probe 3H-NMQ, 3H-NMQ
# T3 construct: purchased ThermoFisher Scientific GM0015; host or cells: Sf9 membrane vesicles
# Description: as §1
# [5] = Estimation of intestinal luminal concentration (Igut), dose/250 mL; settings: estimated from maximum oral amount (AP 10 mg, BHA 8 mg) in 250 mL intestinal fluid
# Description: Igut is intestinal luminal concentration estimated as dose/250 mL. The Igut concentration was estimated using the following equation: Igut=A÷MW×V×10^6 where Igut is the estimated intestinal luminal concentration (µM), A is the amount of antioxidant in an oral dosage (mg), MW is the molecular weight, and V is the volume of intestinal fluid, i.e., 250 mL.
# P-gp [6] = test system: P-gp; parameters: method as in PMID 19944162; settings: cited from earlier work
# T3 sequence (P08183 whole entry): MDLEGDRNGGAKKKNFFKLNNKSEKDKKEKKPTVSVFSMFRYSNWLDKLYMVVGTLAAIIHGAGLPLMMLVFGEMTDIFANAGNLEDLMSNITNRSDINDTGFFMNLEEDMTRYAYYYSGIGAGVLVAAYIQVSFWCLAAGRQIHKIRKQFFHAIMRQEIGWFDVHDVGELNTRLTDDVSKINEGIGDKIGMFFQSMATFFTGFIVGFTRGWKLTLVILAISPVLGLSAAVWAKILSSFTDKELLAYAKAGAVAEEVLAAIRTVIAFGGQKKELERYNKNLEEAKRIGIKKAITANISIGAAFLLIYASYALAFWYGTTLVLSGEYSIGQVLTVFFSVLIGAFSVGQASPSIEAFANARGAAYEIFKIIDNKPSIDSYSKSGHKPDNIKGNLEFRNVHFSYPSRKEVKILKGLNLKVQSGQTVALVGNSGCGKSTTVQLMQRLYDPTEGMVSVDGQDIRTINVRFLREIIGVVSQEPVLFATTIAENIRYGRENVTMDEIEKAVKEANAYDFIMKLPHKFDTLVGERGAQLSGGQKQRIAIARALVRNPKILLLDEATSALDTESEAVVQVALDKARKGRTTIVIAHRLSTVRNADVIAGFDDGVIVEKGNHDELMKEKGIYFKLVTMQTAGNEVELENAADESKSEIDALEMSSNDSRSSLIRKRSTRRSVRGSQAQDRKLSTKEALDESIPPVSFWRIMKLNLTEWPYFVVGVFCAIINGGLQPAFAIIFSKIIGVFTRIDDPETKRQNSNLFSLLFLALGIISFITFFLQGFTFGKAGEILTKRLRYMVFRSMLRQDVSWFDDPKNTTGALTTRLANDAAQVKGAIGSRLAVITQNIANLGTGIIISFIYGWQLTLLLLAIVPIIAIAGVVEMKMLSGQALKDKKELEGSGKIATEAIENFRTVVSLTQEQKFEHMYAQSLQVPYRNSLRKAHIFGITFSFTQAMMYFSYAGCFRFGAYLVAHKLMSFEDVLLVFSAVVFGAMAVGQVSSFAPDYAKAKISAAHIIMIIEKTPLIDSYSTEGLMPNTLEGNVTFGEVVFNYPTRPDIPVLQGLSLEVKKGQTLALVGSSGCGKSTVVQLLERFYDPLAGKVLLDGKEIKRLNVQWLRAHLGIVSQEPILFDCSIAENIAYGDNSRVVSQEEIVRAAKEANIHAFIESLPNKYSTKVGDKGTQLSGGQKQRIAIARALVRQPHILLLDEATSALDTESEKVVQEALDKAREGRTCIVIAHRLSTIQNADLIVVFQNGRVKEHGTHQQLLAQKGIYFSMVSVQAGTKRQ
"IC50 (OATP2B1 [1]; IC50 OATP2B1, substrate 3H-estrone sulfate, mean ± SD of three independent experiments)","IC50 (OATP2B1 [1]; IC50 with preincubation, OATP2B1 expressing cells pre-incubated 30 minutes, mean ± SD of three independent experiments)","IC50 at 10 min (OATP2B1 [1]; human, HEK-293 cells that express OATP2B1, probe 3H-estrone sulfate, IC50 without preincubation, OATP2B1 expressing cells, mean ± SD of three independent experiments)","inhibition at 10 min, 200 µM (OATP2B1 [1]; human, HEK-293 cells that express OATP2B1, probe 3H-estrone sulfate, Inhibition of OATP2B1, 200 µM, 3H-estrone sulfate)",IC50 (OATP2B1 [2]),Max Intestinal Conc (µM) in 250 mL Fluid [5],Structure (SMILES),% Uptake of 3H-CCK8 BCRP (BCRP),"inhibition at 20 min, 200 µM (BCRP)",Effect of 30 min pre-incubation on inhibition potency (OATP2B1 [1]; OATP2B1-expressing cells pre-incubated for 30 min),% Uptake of 3H-ES OATP2B1 (OATP2B1 [1]),LogP [3],% Uptake of 3H-NMQ P-gp (P-gp [4]),"inhibition at 20 min, 200 µM (P-gp [4])","inhibition at 10 min, 200 µM (OATP2B1 [1]; human, HEK-293 cells that express OATP2B1, probe 3H-estrone sulfate)",P-gp inhibition in ATPase assays (P-gp [6])
23 ± 10 µM,95 ± 11.7 µM,159 ± 65.9 µM,> 50%,26 µM and 25.5 µM,96.5 µM,"CCCCCCCCCCCCCCCC(=O)OC[C@H](O)[C@H]1OC(=O)C(O)=C1O [Ascorbyl palmitate (AP), Ascorbyl palmitate]",50.9 ± 9.9%,< 50%,did not further affect their inhibition potency,28.3 ± 11.2%,6,86.9 ± 12.4%,< 50%,,
,,,,,,CC(C)c1cc2c(c(O)c1O)[C@@]1(C(=O)O)CCCC(C)(C)[C@@H]1CC2 [Carnosic acid],4.5 ± 4.8%,≥ 50%,,18.8 ± 5.6%,4.9,0.0 ± 10.1%,≥ 50%,≥ 50%,identified as a P-gp inhibitor
